This is an account of results in ChEMBL document CHEMBL1132399, “Synthesis of novel orthoalkylaminophenol derivatives as potent neuroprotective agents in vitro” (Bioorg Med Chem Lett, 1999).

The test system of data set [1] is HT-22. Briefly: Maximum tolerated concentration required for neurotoxicity on murine HT-22 hippocampal cell culture, monitored by MTT reduction assay tested in vitro. The format is functional, Mus musculus. In general terms: Tetrazolium dyes change colour on reduction, which living cells bring about.
Data set [2] relates to HT-22. Description: Compound was tested in vitro for its neuroprotective activity against L-homocysteic acid(L-HCA) cytotoxicity in murine HT-22 hippocampal cell culture monitored by MTT reduction assay. In kind it is functional, Mus musculus.
Data set [3] in a line: Safety index (MTC/PC50). The format is toxicity. The note with it: read-out: Safety index.
Data set [4] relates to HT-22. Description: Tested in vitro for neurotoxicity on murine HT-22 hippocampal cell culture, monitored by MTT reduction assay. The format is functional. The note with it: Mus musculus, read-out: TC50 (the source's name).
Data set [5] relates to HT-22. Briefly: Tested in vitro for neurotoxicity on murine HT-22 hippocampal cell culture, monitored by LDH assay. The settings on record: Mus musculus, read-out: TC50 (the source's name). The format is functional.
The subject of data set [6] is HT-22. Briefly: Tested in vitro for its neuroprotective activity against L-homocysteic acid(L-HCA) cytotoxicity, in murine HT-22 hippocampal cell culture, monitored by LDH assay. The format is functional, Mus musculus.
For data set [7], the system named is HT-22. Description: Maximum tolerated concentration required for neurotoxicity on murine HT-22 hippocampal cell culture, monitored by LDH assay tested in vitro. The format is functional, Mus musculus.
Data set [8] relates to HT-22. Description: Tested in vitro for its neuroprotective activity against L-homocysteic acid(L-HCA) cytotoxicity, in murine HT-22 hippocampal cell culture, monitored by MTT reduction assay. In kind it is functional, Mus musculus.

Take `Cc1c(C)c2c(c(C)c1O)CC[C@@](C)(CCC[C@H](C)CCC[C@H](C)CCCC(C)C)O2` [ALPHA-TOCOPHEROL]: the MTC with HT-22 [1] and in the data set on HT-22 [7] was >200 µM each time. For the same compound, the values for the PC50 with HT-22 [2] and in the data set on HT-22 [6] were 0.8 µM and 1.7 µM, respectively. Also, the selectivity ratio in data set [3] was > 250. The CC50 in the data set with HT-22 [4] and in the data set with HT-22 [5] was > 200 µM throughout.
`O=C(c1cc(O)c(O)c(O)c1)c1ccc(O)c(O)c1O` [EXIFONE]: the MTC stood at 10 µM in the data set on HT-22 [1] and 50 µM with HT-22 [7]. In addition, the CC50 in the data set with HT-22 [4] is 34 µM; in the data set on HT-22 [5], 91 µM. The PC50 in the data set with HT-22 [8] and in the data set on HT-22 [6] was >10 µM in each case.
